Key:
E. faecalis ATCC 29212 = assay: MIC determination in BHI media, OD600; assay type: cell-based; settings: BHI + 0.1% casamino acids, 18 hours at 37° C., ≧90% OD600 inhibition
Summary of the method: (§1)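 Compounds are dissolved and serially diluted in DMSO, then combined with logarithmically growing cells adjusted to roughly 5×10^5 CFU/ml. Plates incubate 18 hours at 37° C before turbidity is measured on a microplate reader.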

E. faecium ATCC 49624 = assay: MIC determination in BHI media, OD600; assay type: cell-based; settings: BHI + 0.1% casamino acids, 18 hours at 37° C., ≧90% OD600 inhibition
Summary of the method: as §1

S aureus ATCC 29213 = assay: MIC determination in BHI media, OD600; assay type: cell-based; settings: BHI + 0.1% casamino acids, 18 hours at 37° C., ≧90% OD600 inhibition
Summary of the method: as §1

S. Aureus ATCC 33591 = assay: MIC determination in BHI media, OD600; assay type: cell-based; settings: BHI + 0.1% casamino acids, 18 hours at 37° C., ≧90% OD600 inhibition
Summary of the method: as §1

E. faceium (ATCC 49624) = assay: Zone of inhibition screen, 96 well agar array format;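 also: score 3 means fourfold and score 4 sixteenfold the reference zone size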; assay type: cell-based, E. faecium; settings: zone of inhibition relative to 1 mg/ml stock solution of p-chlorobiphenylvancomycin
Method: The antibacterial activity of each of the compounds against the bacterial strains E. faceium (ATCC 49624), S. epidermidis (ATCC 12228), S. aureus (ATCC 29213), E. faecalis (CL 4877) and E. faecalis (ATCC 292121) was tested. Each of the compounds was screened in a 96 will agar array format.

[1] = tested on: S. epidermidis (ATCC 12228); assay: as above; assay type: cell-based; set-up: scale not given here
Summary of the method: (§2)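 Compounds are screened one by one for antibacterial effect in an agar array of 96 wells, using the same set of strains throughout.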

E. faecium CL 4931 = assay: MIC determination in BHI media, OD600; assay type: cell-based; settings: BHI + 0.1% casamino acids, 18 hours at 37° C., ≧90% OD600 inhibition
Summary of the method: as §1

E. faecalis (CL 4877) = assay: Zone of inhibition screen, 96 well agar array format; assay type: cell-based; set-up: scale not given here
Summary of the method: as §2

S. aureus (ATCC 29213) = assay: as above; assay type: cell-based; set-up: scale not given here; settings: zone of inhibition relative to 1 mg/ml p-chlorobiphenylvancomycin
Summary of the method: as §2

[2] = zone of inhibition relative to 1 mg/ml stock solution of p-chlorobiphenylvancomycin
[3] = zone of inhibition relative to 1 mg/ml p-chlorobiphenylvancomycin

Compound | MIC E. faecalis ATCC 29212 (E. faecalis ATCC 29212) [mg/L] | MIC E. faecium ATCC 49624 (E. faecium ATCC 49624) [mg/L] | MIC S. aureus ATCC 29213 (S aureus ATCC 29213) [mg/L] | MIC S. aureus ATCC 33591 (S. Aureus ATCC 33591) [mg/L] | zone score, E. faecium ATCC 49624 (E. faceium (ATCC 49624)) | zone score, S. epidermidis ATCC 12228 [1, 2] | MIC E. faecium CL 4931 (E. faecium CL 4931) [mg/L] | zone score, E. faecalis CL 4877 (E. faecalis (CL 4877); [2]) | zone score, E. faecalis CL 4877 (E. faecalis (CL 4877); [3]) | zone score, S. aureus ATCC 29213 (S. aureus (ATCC 29213)) | zone score, S. epidermidis ATCC 12228 [1, 3]
C[C@H]1O[C@H](O[C@H]2[C@H](Oc3c4cc5cc3Oc3ccc(cc3Cl)[C@@H](O)[C@@H](NC(=O)[C@H](N)Cc3ccccc3)C(=O)N[C@@H](CC(N)=O)C(=O)N[C@H]5C(=O)N[C@H]3C(=O)N[C@H](C(=O)N[C@@H](C(=O)O)c5cc(O)cc(O)c5-c5cc3ccc5O)[C@H](O)c3ccc(c(Cl)c3)O4)O[C@H](CO)[C@@H](O)[C@@H]2O)C[C@@](C)(NCc2ccc(-c3ccc(Cl)cc3)cc2)[C@H]1O [Compound 16] | 0.25 | 0.12 | 0.25 | 0.25 | – | – | – | – | – | – | –
C[C@H]1O[C@H](O[C@H]2[C@H](Oc3c4cc5cc3Oc3ccc(cc3Cl)[C@@H](O)[C@@H](NC(=O)CN3CCNCC3)C(=O)N[C@@H](CC(N)=O)C(=O)N[C@H]5C(=O)N[C@H]3C(=O)N[C@H](C(=O)N[C@@H](C(=O)O)c5cc(O)cc(O)c5-c5cc3ccc5O)[C@H](O)c3ccc(c(Cl)c3)O4)O[C@H](CO)[C@@H](O)[C@@H]2O)C[C@@](C)(NCc2ccc(-c3ccc(Cl)cc3)cc2)[C@H]1O [Compound 24] | – | – | 0.78 | 0.78 | 2 | 2 | 25 | – | – | – | –
CC1OC(OC2C(Oc3c4cc5cc3Oc3ccc(cc3Cl)C(O)C3NC(=O)C(NC(=O)C5NC(=O)C(CC(N)=O)NC(=O)C(NC(=O)CN5CCNCC5)C(O)c5ccc(c(Cl)c5)O4)c4ccc(O)c(c4)-c4c(O)cc(O)cc4C(C(=O)O)NC3=O)OC(CO)C(O)C2O)CC(C)(NCc2ccc(-c3ccc(Cl)cc3)cc2)C1O (stereo not drawn) [Compound 34] | – | 0.78 | 0.78 | – | 2 | – | 25 | – | – | – | –
CCC(C)C(N)C(=O)NC1C(=O)NC(CC(N)=O)C(=O)NC2C(=O)NC3C(=O)NC(C(=O)NC(C(=O)O)c4cc(O)cc(O)c4-c4cc3ccc4O)C(O)c3ccc(c(Cl)c3)Oc3cc2cc(c3OC2OC(CO)C(O)C(O)C2OC2CC(C)(NCc3ccc(-c4ccc(Cl)cc4)cc3)C(O)C(C)O2)Oc2ccc(cc2Cl)C1O (stereo not drawn) [Compound 37] | 0.78 | 0.25 | 0.39 | 0.39 | – | – | – | – | – | – | –
CC1OC(OC2C(Oc3c4cc5cc3Oc3ccc(cc3Cl)C(O)C3NC(=O)C(NC(=O)C5NC(=O)C(CC(N)=O)NC(=O)C(NC(=O)C5CNC(=O)N5)C(O)c5ccc(c(Cl)c5)O4)c4ccc(O)c(c4)-c4c(O)cc(O)cc4C(C(=O)O)NC3=O)OC(CO)C(O)C2O)CC(C)(NCc2ccc(-c3ccc(Cl)cc3)cc2)C1O (stereo not drawn) [Compound 56-3] | 0.25 | 0.12 | 0.25 | 0.25 | – | – | – | – | – | – | –
CC1OC(OC2C(Oc3c4cc5cc3Oc3ccc(cc3Cl)C(O)C3NC(=O)C(NC(=O)C5NC(=O)C(CC(N)=O)NC(=O)C(NC(=O)C(N)CCCCNC(N)=O)C(O)c5ccc(c(Cl)c5)O4)c4ccc(O)c(c4)-c4c(O)cc(O)cc4C(C(=O)O)NC3=O)OC(CO)C(O)C2O)CC(C)(NCc2ccc(-c3ccc(Cl)cc3)cc2)C1O (stereo not drawn) [Compound 61] | 0.25 | 0.12 | 0.12 | 0.12 | – | – | – | – | – | – | –
CC1OC(OC2C(Oc3c4cc5cc3Oc3ccc(cc3Cl)C(O)C3NC(=O)C(NC(=O)C5NC(=O)C(CC(N)=O)NC(=O)C(NC(=O)C(N)CCCNC(N)=O)C(O)c5ccc(c(Cl)c5)O4)c4ccc(O)c(c4)-c4c(O)cc(O)cc4C(C(=O)O)NC3=O)OC(CO)C(O)C2O)CC(C)(NCc2ccc(-c3ccc(Cl)cc3)cc2)C1O (stereo not drawn) [Compound 62] | 0.25 | 0.12 | 0.25 | 0.25 | – | – | – | – | – | – | –
CC1OC(OC2C(Oc3c4cc5cc3Oc3ccc(cc3Cl)C(O)C3NC(=O)C(NC(=O)C5NC(=O)C(CC(N)=O)NC(=O)C(NC(=O)C(N)CCS(C)(=O)=O)C(O)c5ccc(c(Cl)c5)O4)c4ccc(O)c(c4)-c4c(O)cc(O)cc4C(C(=O)O)NC3=O)OC(CO)C(O)C2O)CC(C)(NCc2ccc(-c3ccc(Cl)cc3)cc2)C1O (stereo not drawn) [Compound 82] | – | 0.39 | 0.78 | 0.78 | 2 | – | 25 | – | – | – | –
CC(O)C(N)C(=O)NC1C(=O)NC(CC(N)=O)C(=O)NC2C(=O)NC3C(=O)NC(C(=O)NC(C(=O)O)c4cc(O)cc(O)c4-c4cc3ccc4O)C(O)c3ccc(c(Cl)c3)Oc3cc2cc(c3OC2OC(CO)C(O)C(O)C2OC2CC(C)(NCc3ccc(-c4ccc(Cl)cc4)cc3)C(O)C(C)O2)Oc2ccc(cc2Cl)C1O (stereo not drawn) [Compound 89] | – | 0.78 | – | – | 2 | 2 | > 25 | 2 | – | – | –
CC1OC(OC2C(Oc3c4cc5cc3Oc3ccc(cc3Cl)C(O)C3NC(=O)C(NC(=O)C5NC(=O)C(CC(N)=O)NC(=O)C(NC(=O)C(CCC(N)=O)NC(=O)OC(C)(C)C)C(O)c5ccc(c(Cl)c5)O4)c4ccc(O)c(c4)-c4c(O)cc(O)cc4C(C(=O)O)NC3=O)OC(CO)C(O)C2O)CC(C)(NCc2ccc(-c3ccc(Cl)cc3)cc2)C1O (stereo not drawn) [Compound 136] | – | 0.78 | 0.78 | 0.78 | – | 2 | > 25 | – | – | – | –
C[C@H]1O[C@H](O[C@H]2[C@H](Oc3c4cc5cc3Oc3ccc(cc3Cl)[C@@H](O)[C@@H](NC(=O)c3cccc(N)c3)C(=O)N[C@@H](CC(N)=O)C(=O)N[C@H]5C(=O)N[C@H]3C(=O)N[C@H](C(=O)N[C@@H](C(=O)O)c5cc(O)cc(O)c5-c5cc3ccc5O)[C@H](O)c3ccc(c(Cl)c3)O4)O[C@H](CO)[C@@H](O)[C@@H]2O)C[C@@](C)(NCc2ccc(-c3ccc(Cl)cc3)cc2)[C@H]1O [Compound 257] | – | 0.39 | 0.78 | 0.78 | – | – | 25 | – | 2 | 2 | 2
CNC(C(=O)NC1C(=O)NC(CC(N)=O)C(=O)NC2C(=O)NC3C(=O)NC(C(=O)NC(C(=O)O)c4cc(O)cc(O)c4-c4cc3ccc4O)C(O)c3ccc(c(Cl)c3)Oc3cc2cc(c3OC2OC(CO)C(O)C(O)C2OC2CC(C)(NCc3ccc(-c4ccc(Cl)cc4)cc3)C(O)C(C)O2)Oc2ccc(cc2Cl)C1O)C(C)C (stereo not drawn) [Compound 328] | 0.39 | 0.12 | 0.25 | 0.25 | – | – | – | – | – | – | –
CNC(CC(C)C)C(=O)NC1C(=O)NC(CC(N)=O)C(=O)NC2C(=O)NC3C(=O)NC(C(=O)NC(C(=O)O)c4cc(O)cc(O)c4-c4cc3ccc4O)C(O)c3ccc(c(Cl)c3)Oc3cc2cc(c3OC2OC(CO)C(O)C(O)C2OC2CC(C)(NCc3ccc(-c4ccc(Cl)cc4)cc3)C(O)C(C)O2)Oc2ccc(cc2Cl)C1O (stereo not drawn) [Compound 329] | 0.12 | 0.031 | 0.25 | 0.12 | – | – | – | – | – | – | –
CCC(C)C(NC)C(=O)NC1C(=O)NC(CC(N)=O)C(=O)NC2C(=O)NC3C(=O)NC(C(=O)NC(C(=O)O)c4cc(O)cc(O)c4-c4cc3ccc4O)C(O)c3ccc(c(Cl)c3)Oc3cc2cc(c3OC2OC(CO)C(O)C(O)C2OC2CC(C)(NCc3ccc(-c4ccc(Cl)cc4)cc3)C(O)C(C)O2)Oc2ccc(cc2Cl)C1O (stereo not drawn) [Compound 330] | 0.78 | 0.12 | 0.25 | 0.25 | – | – | – | – | – | – | –
CC(C)CC(N)C(=O)NC1C(=O)NC(CC(N)=O)C(=O)NC2C(=O)NC3C(=O)NC(C(=O)NC(C(=O)O)c4cc(O)cc(O)c4-c4cc3ccc4O)C(O)c3ccc(c(Cl)c3)Oc3cc2cc(c3OC2OC(CO)C(O)C(O)C2OC2CC(C)(NCc3ccc(-c4ccc(Cl)cc4)cc3)C(O)C(C)O2)Oc2ccc(cc2Cl)C1O (stereo not drawn) [Compound 336] | 0.25 | 0.12 | 0.25 | 0.25 | – | – | – | – | – | – | –
CCCC(N)C(=O)NC1C(=O)NC(CC(N)=O)C(=O)NC2C(=O)NC3C(=O)NC(C(=O)NC(C(=O)O)c4cc(O)cc(O)c4-c4cc3ccc4O)C(O)c3ccc(c(Cl)c3)Oc3cc2cc(c3OC2OC(CO)C(O)C(O)C2OC2CC(C)(NCc3ccc(-c4ccc(Cl)cc4)cc3)C(O)C(C)O2)Oc2ccc(cc2Cl)C1O (stereo not drawn) [Compound 337] | 0.25 | 0.062 | 0.12 | 0.12 | – | – | – | – | – | – | –
CC(C)C(N)C(=O)NC1C(=O)NC(CC(N)=O)C(=O)NC2C(=O)NC3C(=O)NC(C(=O)NC(C(=O)O)c4cc(O)cc(O)c4-c4cc3ccc4O)C(O)c3ccc(c(Cl)c3)Oc3cc2cc(c3OC2OC(CO)C(O)C(O)C2OC2CC(C)(NCc3ccc(-c4ccc(Cl)cc4)cc3)C(O)C(C)O2)Oc2ccc(cc2Cl)C1O (stereo not drawn) [Compound 339] | 0.25 | 0.12 | 0.25 | 0.25 | – | – | – | – | – | – | –

— patent US6518243B1, “Desleucyl glycopeptide antibiotics and methods of making same” (Trustees of Princeton University, priority 1999, dated 2003)
